Test systems include SK-OV-3 ovarian; MDA-MB-435; SK-MEL-2 melanoma; HOP-62 NSCLC; IGROV1 ovarian; NCI-H226 lung; K-562 leukemia; DU-145 prostate; SR leukemia; MDA-MB-231 breast.
What all share (test): NCI tumour cell line growth inhibition, 48 h

GI50 and TGI data for seven compounds are collected here from PubChem BioAssay (NCI).

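Method: 48-hour compound exposure of cells in 96-well plates, five concentrations, linear interpolation of endpoints. Abbreviation: GI50, concentration required for 50% inhibition of growth. TGI: total growth inhibition.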

Consider `CC(C)=CCC/C(C)=C/CC/C(C)=C/CSC[C@H](NC(=O)CCCCCN1CCN(C)CC1)C(=O)NC1CCCCCC1`, for which the GI50 in the assay on SK-OV-3 ovarian was 5.16 µM; in the assay with MDA-MB-435, 1.85 µM; in the assay on SK-MEL-2 melanoma, 2.24 µM; with HOP-62 NSCLC it was 4.42 µM; with IGROV1 ovarian it was 2.36 µM; with NCI-H226 lung it was 11.6 µM. In addition, the GI50 with K-562 leukemia is 2.24 µM; in the assay with DU-145 prostate, 1.93 µM; in the assay on SR leukemia, 1.98 µM; with MDA-MB-231 breast it was 1.93 µM. The TGI in the assay on SK-OV-3 ovarian was 17.1 µM; with MDA-MB-435 it was 3.43 µM; in the assay on SK-MEL-2 melanoma it was 4.42 µM; in the assay with HOP-62 NSCLC, 19.3 µM; in the assay with IGROV1 ovarian it was 5.31 µM; in the assay with NCI-H226 lung it was 38.4 µM. For the same compound, the TGI with K-562 leukemia came out at 5.14 µM; with DU-145 prostate, 3.52 µM; in the assay with SR leukemia, 5.35 µM; in the assay with MDA-MB-231 breast, 3.86 µM.
With `Cc1c2cnccc2c(C)c2c1c1ccccc1n2CCOC(=O)c1ccccc1`, the TGI was 25.5 µM in the assay with SK-OV-3 ovarian; more than 100 µM in the assay on MDA-MB-435; 31.8 µM with SK-MEL-2 melanoma; 31.5 µM in the assay on HOP-62 NSCLC; 42.7 µM in the assay with IGROV1 ovarian; 70 µM with NCI-H226 lung. In addition, the TGI in the assay on K-562 leukemia was 44.5 µM; in the assay with DU-145 prostate, more than 100 µM; in the assay with SR leukemia it was 45.9 µM; with MDA-MB-231 breast, more than 100 µM.
Regarding `CC1CCCCCC(=O)c2c(O)cc(O)cc2CC(=O)O1` (stereo not given), the TGI with SK-OV-3 ovarian, in the assay on MDA-MB-435, in the assay with SK-MEL-2 melanoma, in the assay with HOP-62 NSCLC, with IGROV1 ovarian and with NCI-H226 lung was more than 100 µM throughout. The TGI with K-562 leukemia, in the assay on DU-145 prostate, in the assay with SR leukemia and in the assay on MDA-MB-231 breast was more than 100 µM each time.
As to `Cn1cc(C2=C(c3ccsc3)C(=O)NC2=O)c2ccccc21`, the GI50 in the assay with SK-OV-3 ovarian is more than 25 µM; in the assay with MDA-MB-435 it was more than 25 µM; in the assay on SK-MEL-2 melanoma, more than 25 µM; with HOP-62 NSCLC it was more than 25 µM; with IGROV1 ovarian it was more than 25 µM; in the assay with NCI-H226 lung, more than 22.6 µM. For the same compound, the GI50 in the assay with K-562 leukemia, in the assay with DU-145 prostate, in the assay with SR leukemia and with MDA-MB-231 breast was more than 25 µM each time. In addition, the TGI in the assay on SK-OV-3 ovarian, in the assay with MDA-MB-435, with SK-MEL-2 melanoma, in the assay on HOP-62 NSCLC, in the assay on IGROV1 ovarian and with NCI-H226 lung was more than 25 µM in each case. In addition, the TGI in the assay with K-562 leukemia, in the assay with DU-145 prostate, with SR leukemia and in the assay on MDA-MB-231 breast was more than 25 µM each time.
For `O=C(O)/C=C\C(=O)Nc1ccc2c(c1)-c1ccccc1C2`, the TGI with SK-OV-3 ovarian was more than 100 µM; with MDA-MB-435, more than 100 µM; in the assay with SK-MEL-2 melanoma, more than 100 µM; with HOP-62 NSCLC, more than 100 µM; in the assay on IGROV1 ovarian, more than 100 µM; with NCI-H226 lung, 78.2 µM. In addition, the TGI with K-562 leukemia, in the assay on DU-145 prostate, in the assay on SR leukemia and with MDA-MB-231 breast was more than 100 µM each time.
On to `COc1cc2cc(NCc3cccc(Cl)c3)nc(C)c2cc1OC`, for which the GI50 in the assay with SK-OV-3 ovarian is 4.94 µM; in the assay with MDA-MB-435, 0.969 µM; with SK-MEL-2 melanoma, 1.56 µM; with HOP-62 NSCLC, 0.862 µM; in the assay on IGROV1 ovarian it was 1.32 µM; in the assay with NCI-H226 lung it was 4.35 µM. Besides, the GI50 in the assay with K-562 leukemia was 1.68 µM; with DU-145 prostate it was 5.41 µM; with SR leukemia, 1.66 µM; with MDA-MB-231 breast, 1.18 µM. Further, the TGI with SK-OV-3 ovarian worked out at 33.5 µM; in the assay on MDA-MB-435, 6.26 µM; in the assay on SK-MEL-2 melanoma, 12.6 µM; in the assay with HOP-62 NSCLC it was 22.2 µM; in the assay on IGROV1 ovarian, 13.9 µM; with NCI-H226 lung, 26.3 µM. Moreover, the TGI turned out to be 19.8 µM in the assay on K-562 leukemia, 20.9 µM in the assay with DU-145 prostate, 44.9 µM in the assay with SR leukemia and 16.6 µM in the assay with MDA-MB-231 breast.
With `O=C1NC(=O)C(c2c[nH]c3ccccc23)=C1c1c[nH]c2ccccc12`, the GI50 was 13.5 µM with SK-OV-3 ovarian; 6.86 µM in the assay with MDA-MB-435; 12 µM in the assay with SK-MEL-2 melanoma; 16.5 µM in the assay on HOP-62 NSCLC; more than 20.9 µM with IGROV1 ovarian; 3.83 µM with NCI-H226 lung. For the same compound, the GI50 with K-562 leukemia was 11.1 µM; in the assay with DU-145 prostate it was more than 21.2 µM; in the assay with SR leukemia, 6.87 µM; with MDA-MB-231 breast it was 12.6 µM. Moreover, the TGI in the assay on SK-OV-3 ovarian, in the assay on MDA-MB-435, with SK-MEL-2 melanoma, in the assay with HOP-62 NSCLC, in the assay on IGROV1 ovarian and in the assay on NCI-H226 lung was more than 25 µM each time. The TGI with K-562 leukemia, in the assay with DU-145 prostate, in the assay with SR leukemia and in the assay with MDA-MB-231 breast was more than 25 µM each time.
